Test [1] concerns the target T1, thrombin (Mus musculus, UniProt P19221).
T1 construct: from tissue; host or cells: blood and pulmonary thrombi of live Swiss Webster mice (thromboplastin or collagen/epinephrine induced)
Kind of test: Urinary reporters in collagen/epinephrine thrombosis model by ELISA and LFA. Format: in vivo, mice. How it is done:
Collection and analysis of urinary peptides. […] Urine collection times were optimized from previous studies using these disease models^[30, 31] and are dependent on site of disease and rate of enzymatic substrate cleavage. Reporter concentration in unprocessed urine was assayed by above protocols from urine diluted 1:10^2L10^4 for ELISA or 1:4-5 for LFA. Data was analyzed using receiver-operator characteristic (ROC) curves (both) and Wilcoxon signed rank test (CRC) or Mann-Whitney test (thrombosis).
Immediately following infusion, mice were placed over 96-well plates enclosed by a cylindrical tube to collect urine for 30 m (thrombosis model) or 1 h (tumor model). Urine collection times were optimized from previous studies using these disease models^[30, 31] and are dependent on site of disease and rate of enzymatic substrate cleavage. Urine was stored at −80° C. directly following collection.
Unprocessed urine was diluted (1:100-1:10,000) in 1× PBS with 1% w/v BSA and reporters were quantified by ELISA (at least 2 replicates) using standards as described above. Urine was applied to lateral flow test strips in 5 μL volume, at 1:4 (thrombosis model) or 1:5 (CRC model) dilution. Lateral flow tests were performed in triplicate as described above and test strips were allowed to dry and were quantified by automated script as described above. ELISA and LFA data was analyzed using a Wilcoxon signed rank test (CRC) and a Mann-Whitney test (thrombosis).
Urine concentration is dependent on many host and environmental factors (e.g. diet, activity level, medical history, circadian rhythm); therefore, we sought to develop a normalization strategy for the test. It was hypothesized that co-administered free reporters would pass into the urine independent of disease state and could be used to normalize the level of reporters released by protease activity.

Test [2] concerns the target T2, thrombin (Homo sapiens, UniProt P00734). It is filed as biochemical. Details: with recombinant thrombin (15 nM; Haematologic Technologies); purchased Haematologic Technologies. Particulars: R3 in tandem with thrombin-sensitive substrate on NWs; vs samples not exposed to thrombin.
Text: Following in vitro substrate cleavage by thrombin, the peptide fragments were collected by size-exclusion filtration.
Test [3] deals with T2, thrombin. Kind of test: Fluorogenic NW assay with recombinant thrombin. Format: biochemical. Details: with recombinant thrombin (15 nM; Haematologic Technologies); purchased Haematologic Technologies. Particulars: inhibitor 100 μM.
The test system of a further test is MMP. As to the kind of experiment: Urinary reporters in LS174T colorectal tumor model by ELISA and LFA. The note with it: urine test, ELISA. Format: in vivo, mice.
In another test the target is T3, MMP9 (Homo sapiens, UniProt P14780).
T3 construct: purchased R&D Systems
As to the kind of experiment: Fluorogenic NW assay with recombinant MMP9. Format: biochemical. The note with it: inhibitor 100 μM. Here is the method:
Fluorescent reporter-bound thrombin- or MMP-sensitive NWs (substrates PLGLRSW, SEQ ID NO: 3, or PLGVRGK, SEQ ID NO: 4, respectively) were introduced to recombinant thrombin or MMP9 (respectively). Release of homoquenched fluorophores upon proteolysis was read as increased fluorescence by plate reader at 37° C. Inhibitors Argatroban or Marimastat were incubated with the protease-NW cocktail at 100 μM. To quantify reporter release by LFA, reporter-functionalized NWs were incubated with cognate proteases, passed through a 30 kDa MW cutoff filter, quantified by LFA, and analyzed by Mann-Whitney test.
(SpectroMax Gemini EM microplate reader). Argatroban (Sigma) or Marimastat (Tocris) were incubated with the NW-protease cocktail at 100 μM final concentration. To assay proteolytic reporter release by LFA, reporter-functionalized enzyme sensitive NWs were incubated with MMP9 or thrombin as above at 37° C. for four hours and passed through a 30 kDa MW cutoff centrifugal filter. The filtered reporters were diluted to within LFA dynamic range and assayed by LFA as described below. Reporter stability experiments were performed using reporter 3 (1 μM) mixed in 1% w/v BSA with recombinant thrombin or MMP9 (both 15 nM) as above to 100 μL final volume and were incubated at 37° C. for 1 h. […]

The next test deals with Swiss Webster mice. Kind of test: Thromboplastin-induced thrombosis, VT750-fibrin(ogen) deposition in organs. Format: in vivo. Particulars: bivalirudin 10 mg/kg i.v. five minutes prior to thromboplastin. Here is the method: Characterization of thromboplastin-induced thrombosis: Each vial of thromboplastin containing 3-4 mg (from rabbit brain, Sigma) was dissolved in 2 mL of PBS. To quantify fibrin deposition, bovine fibrinogen (Sigma) was reacted with 3-fold molar excess of VT750 for 1 hr at RT, and purified by centrifugal size filtration (size cutoff, Millipore). Swiss Webster mice (Taconic) were lightly anesthetized with isofluorane and administered mixtures of VT750-fibrinogen (1 nmol by VT750) with thromboplastin (n=3 mice per dose) via tail vein injections. After 30 minutes, mice were euthanized by CO2 asphyxiation and organs were scanned on the LI-COR Odyssey Infrared Imaging System. Fibrin(ogen) fluorescence in each organ was quantified using ImageJ software (NIH). To test thrombin inhibition, mice were intravenously administered bivalirudin (10 mg/kg) five minutes prior to co-injection of thromboplastin. […]
We next investigated the ability of the synthetic biomarkers to detect thrombosis in living mice induced via intravenous (i.v.) administration of thromboplastin. […] To quantify PE formation, mice were co-injected with thromboplastin and the clot precursor fibrinogen (labeled with the near-infrared fluorophore VT750) so that the formation of fibrin clots by thrombin-mediated proteolysis of fibrinogen could be quantified by fluorescence analysis of whole organs (FIG. 3A). […]

Test [4] concerns the target T1, thrombin. Kind of test: Urinary monitoring of thromboplastin-induced thrombosis by ELISA. It is filed as in vivo, mice. Particulars: bivalirudin 10 mg/kg; thromboplastin 2 μl per g b.w. How it is done: ELISA detection of bifunctionalized reporters: 96-well plates (Thermo Scientific) were incubated with either 0.8 μg/mL of anti-Flsc (GeneTex, GTX19224) or 0.4 μg/mL of anti-Alex Fluor 488 (Invitrogen, A11094) diluted in PBS overnight at 4° C. Plates were blocked with 1% w/v bovine serum albumin (Sigma) in PBS for 1 hr before 100 μL of samples were added. Reporters captured on the plate were then detected by adding 100 μL of 0.2 μg/mL neutravidin-HRP (Pierce), developed with 50 μL TMB solution (Thermo Scientific) for 5-15 minutes and quenched with 50 μL of HCl before the absorbance of the wells was determined by microplate analysis (SpectraMax Plus, Molecular Devices) at 450 nm. Plates were washed 3× with PBST between each steps and incubation occurred at RT unless otherwise stated.
Urinary monitoring of thrombosis. Experiments were conducted in a paired setup. […] Urine samples were stored at −80° C. until ELISA analysis.
The concentration of analytes in the urine is mainly dependent on the hydration state of the host (ranging from 50-1200 mOsm/kg H2O in humans)^[20] and is affected by many external factors (e.g. circadian rhythm, diet, activity, and others). […]

Test [5] has as its target T2, thrombin. As to the kind of experiment: Fluorogenic NW assay with purified thrombin. It is filed as biochemical. On the set-up: mixed with human thrombin (2 μM); purchased Haematologic Technologies. Particulars: bivalirudin 5 mg/mL, pre-incubated two minutes.
Experimental: In vitro protease assays: NWs (200 nM by peptide) were mixed with human thrombin (2 μM), FVIIa (10 nM), FIXa (90 nM), FXa (160 nM), FXIa (31 nM), and activated protein C (60 nM, Haematologic Technologies) in a 384-well plate at 37° C. in activity buffers according to the manufacturer's instructions and monitored with a microplate reader (SpectroMax Gemini EM). […] For thrombin inhibition experiments, bivalirudin (Anaspec) was added to a final concentration of 5 mg/mL and pre-incubated for two minutes prior to addition of NWs.
To test substrate specificity, fluorophore-labeled derivatives were conjugated onto NWs at a valency sufficient to produce homoquenched substrates (˜40 peptides per NW) and then incubated the NWs with purified thrombin or a panel of blood clotting proteases (FXa, APC, FIXa, FVIIa, FXIa), each present at its maximal physiological concentration during thrombosis (FIG. 1B).

Where no end group is shown, it is not given here.

T3 sequence (P14780 94-707, species assumed): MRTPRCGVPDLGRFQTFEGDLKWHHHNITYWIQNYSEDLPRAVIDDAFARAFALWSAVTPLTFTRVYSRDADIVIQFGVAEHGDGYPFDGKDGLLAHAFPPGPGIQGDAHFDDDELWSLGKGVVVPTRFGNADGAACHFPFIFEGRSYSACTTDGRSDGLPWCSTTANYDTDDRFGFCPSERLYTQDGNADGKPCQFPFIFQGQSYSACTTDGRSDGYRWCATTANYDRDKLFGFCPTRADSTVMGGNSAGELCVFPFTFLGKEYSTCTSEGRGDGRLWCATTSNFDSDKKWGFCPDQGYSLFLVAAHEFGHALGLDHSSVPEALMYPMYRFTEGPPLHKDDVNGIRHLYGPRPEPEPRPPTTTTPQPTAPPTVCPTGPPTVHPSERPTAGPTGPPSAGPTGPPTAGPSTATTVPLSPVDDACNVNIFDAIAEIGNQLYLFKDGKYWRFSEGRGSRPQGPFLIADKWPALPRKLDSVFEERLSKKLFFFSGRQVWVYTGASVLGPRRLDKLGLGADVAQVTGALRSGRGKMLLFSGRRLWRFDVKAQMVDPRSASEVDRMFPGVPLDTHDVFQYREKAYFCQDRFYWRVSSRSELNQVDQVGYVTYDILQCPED

For TMR-GluFib-Biotin [Reporter R3], the “urinary level of reporter normalized against R4 in mice harboring thrombi” value on thrombin [1] (ELISA) is reported as “significantly increased”. Further, the “urinary level of reporter of thrombin activity in mice harboring thrombi” value on thrombin [1] (ELISA, quantified independently) was “significantly increased”. Moreover, the “ratio of R3/R4 in diseased urine vs healthy controls” value at thrombin [1] (multiplexed paper strip (LFA)) was “statistically significant increase”. Also, the “detection of cleaved reporter from filtrate by LFA after thrombin cleavage” value on thrombin [2] is recorded as “readily detected”.

For `CC1CNc2c(cccc2S(=O)(=O)N[C@@H](CCCNC(=N)N)C(=O)N2CC[C@@H](C)C[C@@H]2C(=O)O)C1` (stereo partly shown) [Argatroban], at thrombin [3], the “fluorescence of thrombin-sensitive NWs with thrombin in presence of inhibitor” value is “No increase in fluorescence”.

Take “MMP-sensitive NWs: PEG-coated iron oxide nanoworms with MMP9-cleavable substrate PLGVRGK and fluorescein, VT750 or R2 reporter (also: on PEG-coated iron oxide nanoworms, fluorescein, VT750 or R2 reporter)”: the “ROC a.u.c, discrimination of CRC” value in the test on MMP is listed as 0.90.

Take `CNC(=O)[C@@H](NC(=O)[C@H](CC(C)C)[C@H](O)C(=O)NO)C(C)(C)C` [Marimastat]: the “activity of MMP9 on MMP-sensitive NWs in presence of inhibitor” value at MMP9 is “no activity”.

Regarding bivalirudin, in the test with Swiss Webster mice, the “formation of PEs in pretreated animals” value is reported as “readily prevented”. Also, the “urinary reporter levels in mice treated with inhibitor prior to thrombotic challenge” value on thrombin [4] is listed as “abrogated”. Further, at thrombin [5], the “proteolysis of NWs by thrombin in the presence of inhibitor” value was “negligible proteolysis”.
